For one test, the system named is E. coli O111B4. Kind of test: Antibacterial experiment: supernatant of VD3-stimulated U-937 cells co-incubated with E. coli O111B4, colony count. The class given is cell-based. The settings on record: for CFU: U937 supernatant. The protocol: In this study, the final activated form of vitamin D, 1,25-dihydroxyvitamin D3 [1,25 (OH)2D3] was the test substance. The lymphoma U-937 cells of human tissue cell were used as experimental systems, the E. coli O111B4 was the antibacterial target. Cell supernatants treated by 1,25(OH)2D3 was co-incubated with E. coli O111B4. The E. coli O111B4 colony forming units (CFU) was used to examine whether 1,25(OH)2D3 achieved an antibacterial effect by stimulating cell lines derived from human to secrete antimicrobial peptides in vitro.
U-937 cells in the condition of exponential growth were centrifuged (1000 rpm, 5 min);
After centrifugation, the supernatant was discarded, and cell sediment was resuspended in an appropriate amount of RPMI1640 incomplete medium to make sure cells dispersed uniformly;
The cell suspension was counted by hemacytometer counting;
The concentration of cell suspension was adjusted to 1×10^5/mL using RPMI 1640 incomplete medium;
Each well of 6-well plate was inoculated with 3 mL cell suspension, the total number of cells per well was 3×10^5;
According to the label and the experimental design, 10 μL 200× test solution or vehicle of various concentrations with 0.5% (v/v) dose volume was added to each well.
Each dose was repeated in two parallel wells, one well harvested after 24 hours, and the other well harvested after 48 hours;
After administration, the 6-well plate was placed in 37° C., 5% CO2 incubator, cultured for 24 hours and 48 hours respectively.
Day 1 afternoon, a E. coli O111B4 glycerol pipe was thawed, 10 μL glycerol bacteria was inoculated in 10 mL of LB liquid medium without any antibiotic, and was cultured on oscillator at 37° C. overnight; Day 2 morning, 200 μL cultured broth (1:100 ratio) cultured overnight was transferred to 20 mL LB liquid medium without any antibiotics and was cultured on oscillator at 37° C. until OD600 was 0.6-1.0, then the next step was antibacterial experiment (Day 3); the remaining overnight cultured broth was stored in the refrigerator at 2-8° C. until needed.
Day 2 afternoon, 10 μL overnight cultured broth was inoculated in 10 mL LB medium without any antibiotics, and was cultured on oscillator at 37° C. overnight;
Day 3 morning, 200 μL overnight cultured broth (1:100 ratio) was transferred to 20 mL LB medium without any antibiotics, and was cultured on oscillator at 37° C. until OD600 was 0.6-1.0, then the next step was antibacterial experiment (Day 3).
Before the experiment started, 1.5% agar plate (lower medium) prepared beforehand was placed at room temperature for at least one hour;
Top agar medium (containing 0.8%/agar) was melted, and packaged. Each 1.6 mL of Top agar medium was packaged in each tube, and then the small tube was placed in 45° C. water bath to keep warm;
10 mL E. coli bacteria of OD600 0.6-1.0 was transferred into 50 mL centrifuge tubes to centrifuge (1000 rpm×5 min); After centrifugation, the supernatant was discarded, the bacteria precipitate was resuspended by adding 10 mL PBS; the above-described bacterial suspension was diluted 1×10^5 fold in PBS dilution by multiple proportion dilution (from 10-fold); After the drug action finished (24 hours or 48 hours), U-937 cells was centrifugated (1000 rpm, 5 min). After centrifugation, the supernatant was drawn back;
Each centrifuge tube previously added 50 μL diluted bacterial suspension (approximately 150-250 bacteria);
Bacterial suspension were added with 1.2 mL cell supernatant from each cell supernatant, and mixed;
The supernatant/bacterial mixture was placed on shaking table (200 rpm) at 37° C. and was incubated for 90 minutes. After incubation, the next step was plating;
Plating: 0.8 mL of cell supernatant/broth mixture was mixed with 1.6 mL top agar medium, the mixture was plated on 1.5% agar plates, 600 uL per well in triplicate.
Sterility test: 800 uL PBS and 1.6 mL top agar medium was mixed, and plated as above. […]

Test [1] concerns E. coli CFT073. The test can be described thus: Antibacterial experiment: VD3-stimulated 5637 bladder cells co-incubated with E. coli CFT073, CFU of cell lysate. To be noted: 5637 cells stimulated by VD3 at different concentrations, FIG. 3. It counts as cell-based. The protocol:
In this study, the final activated form of vitamin D, 1,25-dihydroxyvitamin D3 [1,25(OH)2D3] was the test substance, the human bladder cancer cells 5637 was used as experimental systems, the E. coli CFT073 was antibacterial target, cells treated by 1,25(OH)2D3 was co-incubated with E. coli CFT073. The E. coli CFT073 colony forming units (CFU) was used to examine whether 1,25(OH)2D3 achieved an antibacterial effect by stimulating cell lines derived from human to secrete antimicrobial peptides in vitro.
5637 cells in the condition of exponential growth and about 90% confluence were digested by pancreatin (GIBCO, Cat. No. 25200-056) for 5 min. When most of the cells came off from the culture plate, complete medium was added to terminate digestion. The non-peeling cells were blown down from the culture plate by a pipette, and were transferred to a 15 ml centrifuge tube. The cells were centrifuged at 1500 rpm for three minutes. The supernatant was discarded. The cell deposit was resuspended in complete medium to ensure that the cells uniformly dispersed.
(§1) The cell suspension was counted by hemacytometer;
The concentration of cell suspension was adjusted to 4×10^5/mL using incomplete RPMI 1640 medium;
Each well of 6-well plate was inoculated with 2 mL cell suspension, the total number of cells per well was 8×10^5;
6-well plate was placed in an incubator under the condition of 37° C., 5% CO2. […]

A further test has as its system LL-37. The test can be described thus: ELISA of LL-37 in lysate of VD3-stimulated 5637 cells. To be noted: 5637 cells stimulated with VD3 at different concentrations, FIG. 4. The class given is cell-based, human. The protocol:
3.2 ELISA Experiments about Effect of 1,25 (OH)2D3 on LL-37 Production 3.2.1 the Procedure of Inoculation (Day1), Administration (Day2), and E. coli infection bacteria solution preparation (Day 2&3) was the same as 3.1.1, 3.1.2 and 3.1.3.
Cell lysate was obtained using the method of 3.1.4. Cell debris and bacteria were removed by 13000 rpm centrifugation for 5 min. Lysate supernatant was fetched out and LL-37 was quantified by Human LL-37 ELISA Kit (Hycult, Cat. No. HK321).

Test [2] relates to E. coli CFT073. The test can be described thus: Antibacterial experiment: VD3-stimulated SV-HUC1 urethral epithelial cells co-incubated with E. coli CFT073, CFU of cell lysate. The class given is cell-based. The settings on record: SV-HUC1 cells stimulated by VD3 at different concentrations, FIG. 5. The protocol: In this study, with the final activated form of vitamin D3, 1,25-dihydroxyvitamin D3 [1,25 (OH)2D3] as the test substance, the immortalized human urethral epithelial cells SV-HUC1 as experimental systems, the E. coli CFT073 as antibacterial target, the cells treated by 1,25 (OH) 2D3 were co-incubated with E. coli CFT073. The E. coli CFT073 colony forming units (CFU) were used to examine whether 1,25 (OH) 2D3 achieves an antibacterial effect by stimulating cell lines derived from human to secrete antimicrobial peptides in vitro.
SV-HUC1 cells in the condition of exponential growth and about 90% confluence were digested by pancreatin (GIBCO, Cat. No. 25200-056) for 5 min. When most of the cells came off from the culture plate, complete medium was added to terminate digestion. The non-peeling cells were blown down from the culture plate by a pipette, and were transferred to a 15 ml centrifuge tube. The cells were centrifuged at 1500 rpm for three minutes. The supernatant was discarded. The cell deposit was resuspended in complete medium to ensure that the cells dispersed uniformly.
as §1
The concentration of cell suspension was adjusted to 4×10^5/mL using F12 incomplete medium;
Each well of 6-well plate was inoculated with 2 mL cell suspension, the total number of cells per well was 8×10^5; […]

The values that follow come from patent publication US20160324876A1, “VITAMIN D AND ANTIBACTERIAL USES OF COMPOSITIONS THEREOF” (ZENSUN SCIENCE & TECHNOLOGY LIMITED, priority 2014, published 2016).

For `CC1(C)S[C@@H]2[C@H](NC(=O)[C@H](N)c3ccccc3)C(=O)N2[C@H]1C(=O)O` [antibiotic control group, ampicillin], in the test with E. coli O111B4 (antibiotics control experiment: PBS, broth, 2 uL ampicillin, top agar), the colonies produced entry is recorded as “no colonies produced”.
`C=C1/C(=C\C=C2/CCC[C@]3(C)[C@@H]([C@H](C)CCCC(C)(C)O)CC[C@@H]23)C[C@@H](O)C[C@@H]1O` [VD3, 1,25-dihydroxyvitamin D3]: the “antibacterial effect (relative CFU of 5637 cell lysate vs ethanol control)” value in the test with E. coli CFT073 [1] was “significant antibacterial effect”. Moreover, the CFU worked out at 172 with E. coli O111B4 (High dose, VD3 10^−7M, Day 1, Serum 10%); 112 with E. coli O111B4 (High dose, VD3 10^−7M, Day 2, Serum 1%); 127 with E. coli O111B4 (High dose, VD3 10^−7M, Day 2, Serum 10%); 108 in the test on E. coli O111B4 (High dose, VD3 10^−7N, Day 1, Serum 1%); 102 in the test with E. coli O111B4 (Low Dose, VD3 10^−8M, Day 1, Serum 1%); 112 in the test with E. coli O111B4 (Low Dose, VD3 10^−8M, Day 1, Serum 10%). Moreover, the CFU in the test with E. coli O111B4 (Low Dose, VD3 10^−8M, Day 2, Serum 1%) is recorded as 93; in the test with E. coli O111B4 (Low Dose, VD3 10^−8M, Day 2, Serum 10%) it was 97. Besides, in the test on E. coli O111B4 (U937 cells stimulated by different concentrations of VD3), the “antibacterial effect of supernatant solution” value was “significant antibacterial effect”. For the same molecule, the “LL-37 levels in cell lysates” value in the test on LL-37 is listed as “significant dose-dependent increase”. In addition, the “antibacterial activity of cell lysates” value with E. coli CFT073 [2] is recorded as “significant antibacterial activity”.
